Experimental data taken from patent US20190047983A1, “MODIFIED PROCESS FOR THE PREPARATION OF CERITINIB AND AMORPHOUS FORM OF CERITINIB” (NATCO PHARMA LIMITED, priority 2016, published 2019).

Assay: Stability of the amorphous form, confirmed by PXRD, DSC and TGA
Format: physicochemical
Conditions: solid amorphous form
From the text: According to the present invention, the obtained amorphous form of Ceritinib is stable up to 180 days. The stability of the amorphous form is confirmed by PXRD, DSC and TGA.
FIG. 2: Powder X-ray diffractogram of an amorphous form of ceritinib of 180 days

stability towards polymorphic conversion: stable towards polymorphic conversion
stability of the amorphous form (time for which it is stable) (confirmed by PXRD, DSC and TGA, storage conditions not given): up to 180 days
SMILES: Cc1cc(Nc2ncc(Cl)c(Nc3ccccc3S(=O)(=O)C(C)C)n2)c(OC(C)C)cc1C1CCNCC1 [amorphous form of Ceritinib]
